Assay results as given in PMC6037162 (Journal of the American Chemical Society, 2018).
Residue numbers refer to the chain shown, from its start. Several values for one entry are separate records, joined by “and”; a condition that tells them apart may be missing. Equal values may be shown once.

Columns and labels:
[1] = Acidity constants of ligands in water
wildtype TIM [2] = settings: compared with D-GAP; ref [30]; cited from earlier work
[3] = ref [20]; cited from earlier work
wildtype TIM [4] = assay: Binding of PGA trianion to wildtype TIMs, summary of Table 1; format: biochemical
P166A TbbTIM = P166A TbbTIM (Trypanosoma brucei brucei, UniProt P04789, P168A); assay: TIM-catalyzed isomerization of GAP; format: biochemical; settings: difference to wildtype enzyme
I170A TbbTIM [5] = target: T1, I170A TbbTIM (Trypanosoma brucei brucei, UniProt P04789, I172A); assay: TIM-catalyzed isomerization of GAP; format: biochemical
wildtype cTIM = wildtype cTIM (Gallus gallus, UniProt P00940); assay: TIM-catalyzed isomerization of GAP; format: biochemical, chicken; settings: deprotonation of EH·I^3–; estimated from (Ki)E·KEHI and (Ki)E
[6] = target: L7R cTIM (loop 7 replacement) (Gallus gallus, UniProt P00940, G210A/S211G/Y208T); assay: TIM-catalyzed isomerization of GAP; format: biochemical, chicken
wildtype TbbTIM [7] = target: T2, wildtype TbbTIM (Trypanosoma brucei brucei, UniProt P04789); format: biochemical; settings: deprotonation of EH·I^3–; estimated from (Ki)E·KEHI and (Ki)E
S211A yTIM = target: T3, S211A yTIM (Saccharomyces cerevisiae, UniProt P00942, S211A); assay: TIM-catalyzed isomerization of GAP; format: biochemical, yeast
T3 sequence (P00942 1-248 S211A): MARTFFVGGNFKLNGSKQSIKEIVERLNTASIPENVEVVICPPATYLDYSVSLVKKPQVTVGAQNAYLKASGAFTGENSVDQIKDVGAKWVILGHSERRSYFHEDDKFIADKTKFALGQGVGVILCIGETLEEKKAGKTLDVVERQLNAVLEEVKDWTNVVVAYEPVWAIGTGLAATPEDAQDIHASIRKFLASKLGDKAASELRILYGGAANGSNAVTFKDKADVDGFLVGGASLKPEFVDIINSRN

I170A TbbTIM [8] = target: T1, I170A TbbTIM; settings: deprotonation of EH·I^3–; ref [14]; cited from earlier work
[9] = Storage stability of PGA stock solutions; format: physicochemical; settings: solutions at pH 7.5 stored at −20 °C
Y208F yTIM = target: T4, Y208F yTIM (Saccharomyces cerevisiae, UniProt P00942, Y208F); assay: TIM-catalyzed isomerization of GAP; format: biochemical, yeast
T4 sequence (P00942 1-248 Y208F): T3 sequence (P00942 1-248 S211A) with Y208F, A211S

mutant TIMs = assay: Binding of PGA trianion to mutant TIMs, summary of Table 1; format: biochemical; settings: read-out: (Ki)E; range over mutant TIMs
wildtype TbbTIM [10] = target: T2, wildtype TbbTIM; settings: pH profile linear through pH 9.7; ref [14]; cited from earlier work
[11] = deprotonation of EH·I^3–, fit to eq 7
[12] = (Ki)E, release of PGA trianion from E^–·I^3–, fit to eq 7

Sequence of L7R cTIM (loop 7 replacement) (P00940 whole entry Y208T/G210A/S211G): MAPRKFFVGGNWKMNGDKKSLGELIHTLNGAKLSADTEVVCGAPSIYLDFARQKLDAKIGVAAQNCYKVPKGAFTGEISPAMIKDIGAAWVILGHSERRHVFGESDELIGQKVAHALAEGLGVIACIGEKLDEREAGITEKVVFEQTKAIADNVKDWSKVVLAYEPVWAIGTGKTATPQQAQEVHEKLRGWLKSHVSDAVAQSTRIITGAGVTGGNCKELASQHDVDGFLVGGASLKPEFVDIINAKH
Sequence of wildtype cTIM (P00940 whole entry): as the sequence (P00940 whole entry Y208T/G210A/S211G) above, with T208Y, A210G, G211S counted along it

## O=C[C@H](O)COP(=O)(O)O [GAP, D-Glyceraldehyde 3-phosphate]
[1]
  pKa: 6 ± 0.1

## O=C[C@@H](O)COP(=O)(O)O [L-GAP]
Wildtype TIM [2]
  binding to TIM: binds much more weakly to TIM than D-GAP

## O=C(O)COP(=O)(O)O [PGA, 2-Phosphoglycolic acid]
[3]
  pKa for loss of a proton from PGA dianion to form PGA trianion: 6.3
Wildtype TIM [4]; from (Ki)E
  binding energy for formation of E^–·I^3–: 3 kcal/mol
Wildtype TIM [4]; from (Ki)EH
  binding energy of I^3– to EH: 11.1 to 11.8 kcal/mol
P166A TbbTIM
  Δ(pK)EHI: 0.7
I170A TbbTIM [5]
  Ki: 7.94 mM
I170A TbbTIM [5]; difference to wildtype enzyme
  Δ(pK)EHI: 2.3
Wildtype cTIM
  KEHI: 2.9 × 10^–11 M
[6]
  Ki: 2.6 mM
[6]; [11]
  KEHI: 1.8 × 10^–7 M
[6]; difference to wildtype enzyme
  Δ(pK)EHI: 3.8
Wildtype TbbTIM [7]
  KEHI: 1.2 × 10^–11 M
S211A yTIM; [12]
  Ki: 20 mM and 24 mM
S211A yTIM; difference to wildtype enzyme
  Δ(pK)EHI: 2.2
I170A TbbTIM [8]
  KEHI: 1.9 × 10^–8 M
[9]
  stability toward hydrolysis of the phosphoryl group: at least 6 months
Y208F yTIM; [12]
  Ki: 16 mM
Y208F yTIM; [11]
  KEHI: 4.9 × 10^–7 M
Y208F yTIM; difference to wildtype enzyme
  Δ(pK)EHI: 4.1
Y208F yTIM; log (Ki)E
  Ki: 15.8 mM
Mutant TIMs
  Ki: 3 to 30 mM
Wildtype TbbTIM [10]
  pKEHI for release of a proton from the EH·I^3– complex: > 10
